Laboratory results reported in ChEMBL document CHEMBL1132862, “Structure-activity and crystallographic analysis of a new class of non-amide-based thrombin inhibitor” (Bioorg Med Chem Lett, 2000).

Target: Prothrombin (Homo sapiens, UniProt P00734)
Test: Anti- Thrombin activity using standard chromogenic assay

Row | Compound | Ki [µM]
1 | Cc1cc(OCC2CCN(C(=N)N)CC2)cc(OS(=O)(=O)c2cccc(C(F)(F)F)c2)c1 | 0.445
2 | Cc1cc(OCC2CCN(C(=N)N)CC2)cc(OS(=O)(=O)c2cccc(N)c2)c1 | 0.032
3 | COC(=O)c1cc(OCC2CCN(C(=N)N)CC2)cc(OS(=O)(=O)c2ccccc2Cl)c1 | 3.7
4 | Cc1cc(OCC2CCN(C(=N)N)CC2)cc(OS(=O)(=O)c2cccc(Cl)c2)c1 | 0.039
5 | Cc1cc(OCC2CCN(C(=N)N)CC2)cc(OS(=O)(=O)c2ccc(N)cc2)c1 | 0.399
6 | N=C(N)N1CCC(COc2cc(CO)cc(OS(=O)(=O)c3ccccc3Cl)c2)CC1 | 0.49
7 | Cc1cc(OCC2CC[N+](=C([NH-])N)CC2)cc(OS(=O)(=O)c2cccc([N+](=O)[O-])c2)c1 (stereo not given) | 0.115
8 | N=C(N)N1CCC(COc2cccc(OS(=O)(=O)c3ccccc3Cl)c2)CC1 | 0.19
9 | CCc1cc(OCC2CCN(C(=N)N)CC2)cc(OS(=O)(=O)c2ccccc2Cl)c1 | 0.039
10 | COC(=O)c1ccccc1S(=O)(=O)Oc1cc(C)cc(OCC2CCN(C(=N)N)CC2)c1 | 0.028
11 | Cc1cc(OCC2CCN(C(=N)N)CC2)cc(OS(=O)(=O)c2ccccc2N)c1 | 0.052
12 | Cc1cc(OCC2CCN(C(=N)N)CC2)cc(OS(=O)(=O)c2ccccc2C(F)(F)F)c1 | 0.014
13 | Cc1cc(OCC2CCN(C(=N)N)CC2)cc(OS(=O)(=O)c2cccc3ccccc23)c1 | 0.035
14 | Cc1cc(OCC2CCN(C(=N)N)CC2)cc(OS(=O)(=O)c2cccc(Cl)c2Cl)c1 | 0.022
15 | N=C(N)N1CCC(COc2cc(Cl)cc(OS(=O)(=O)c3ccccc3Cl)c2)CC1 | 0.03
16 | Cc1cc(OCC2CCN(C(=N)N)CC2)cc(OS(=O)(=O)c2ccccc2)c1 | 0.032
17 | Cc1cc(OCC2CCN(C(=N)N)CC2)cc(OS(=O)(=O)c2cccc(C)c2)c1 | 0.036
18 | Cc1cc(OCC2CC[N+](=C([NH-])N)CC2)cc(OS(=O)(=O)c2ccc([N+](=O)[O-])cc2)c1 (stereo not given) | 0.327
19 | COc1cc(OCC2CCN(C(=N)N)CC2)cc(OS(=O)(=O)c2ccccc2Cl)c1 | 0.044
20 | Cc1cc(OCC2CC[N+](=C([NH-])N)CC2)cc(OS(=O)(=O)c2ccccc2[N+](=O)[O-])c1 (stereo not given) | 0.016
